In patent EP0993437B1, “2-(4-BROMO OR 4-IODO PHENYLAMINO) BENZOIC ACID DERIVATIVES AND THEIR USE AS MEK INHIBITORS” (Warner-Lambert Company LLC, priority 1997, dated 1999):

What was measured:
MAP kinase = test: Whole cell MAP kinase assay (In Vivo, Cell Culture); assay type: cell-based
Protocol: Cells were then serum-deprived overnight. Cells were exposed to the desired concentrations of compound or vehicle (DMSO) for 30 minutes, followed by addition of a growth factor, for example, PDGF (100 ng/mL). After a 5-minute treatment with the growth factor, cells were washed with PBS, then lysed in a buffer consisting of 70 mM NaCl, 10 mM HEPES (pH 7.4), 50 mM glycerol phosphate, and 1% Triton X-100. Lysates were clarified by centrifugation at 13,000 × g for 10 minutes. Five micrograms of the resulting supernatants were incubated with 10 µg microtubule associated protein-2 (Map2) for 15 minutes at 30°C in a final volume of 25 µL containing 50 mM Tris (pH 7.4), 10 mM MgCl2, 2 mM EGTA and 30 µM [γ-^32P]ATP, Reactions were terminated by addition of Laemmli sample buffer.

MEK = test: Cascade assay for inhibitors of the MAP kinase pathway (In Vitro); assay type: biochemical
Protocol: Incorporation of ^32P into myelin basic protein (MBP) was assayed in the presence of a glutathione S-transferase fusion protein containing p44MAP kinase (GST-MAPK) and a glutathione S-transferase fusion protein containing p45MEK (GST-MEK). The assay solution contained 20 mM HEPES, pH 7.4, 10 mM MgCl2, 1-mM MnCl2, 1 mM EGTA, 50 µM [γ-^32P]ATP, 10 µg GST-MEK, 0.5 µg GST-MAPK and 40 µg MBP in a final volume of 100 µL. […] Compounds were assessed at 10 µM for ability to inhibit incorporation of ^32P.
To ascertain whether compounds were inhibiting GST-MEK or GST MAPK, two additional protocols were employed. In the first protocol, compounds were added to tubes containing GST-MEK, followed by addition of GST-MAPK, MBP and [γ-^32P]ATP.

| Compound | IC50 (MEK) | other results |
| --- | --- | --- |
| Cc1cc(I)ccc1Nc1cc([N+](=O)[O-])ccc1C(=O)O [Example 30, 2-(4-Iodo-2-methyl-phenylamino)-4-nitro-benzoic acid] | – | IC50 (MAP kinase): 10000 nM; In Vitro % Inhibition (MEK; compounds assessed at 10 µM): 105% |
| Cc1cc(I)ccc1Nc1ccccc1C(=O)O [Example 19, 2-(4-Iodo-2-methyl-phenylamino)-benzoic acid] | 524 nM | inhibition at 30 µM (MAP kinase): 50% |
| Cc1cc(I)ccc1Nc1c(F)cc(C(=O)O)c(F)c1F [Example 22, 2,3 ,5 -Trifluoro-4-(4-iodo-2-methyl-phenylamino)-benzoic acid] | 1580 nM | inhibition at 30 µM (MAP kinase): 30% |
| Cc1cc(I)ccc1Nc1cc(F)ccc1CO [Example 49, 4-Fluoro-2-(4-iodo-2-methyl-phenylamino)-benzyl alcohol] | 418 nM | IC50 (MAP kinase): 3000 nM |
| C=CCNC(=O)c1cc(Cl)ccc1Nc1ccc(I)cc1C [Example 193, N-Allyl-5-chloro-2-(4-iodo-2-methyl-phenylamino)-benzamide] | 2900 nM | – |
| Cc1cc(I)ccc1Nc1ccc(Cl)cc1C(=O)NCCO [Example 187, 5-Chloro-N-(2-hydroxy-ethyl)-2-(4-iodo-2-methyl-phenylamino)-benzamide] | 561 nM | – |
| CCN(CC)C(=O)c1cc([N+](=O)[O-])ccc1Nc1ccc(I)cc1C [Example 45, N,N-Diethyl-2-(4-iodo-2-methyl-phenylamino)-5-nitro-benzamide] | 1760 nM | – |
| CCCCNC(=O)c1ccc(F)cc1Nc1ccc(I)cc1C [Example 46, N-Butyl-4-fluoro-2-(4-iodo-2-methyl-phenylamino)-benzamide] | 1810 nM | – |
| Cc1cc(I)ccc1Nc1ccc(Cl)cc1C(=O)NCC(=O)O [Example 40] | 651 nM | – |
| Cc1cc(I)ccc1Nc1ccc(Br)cc1C(=O)NCCO [Example 42, 5-Bromo-N-(2-hydroxy-ethyl)-2-(4-iodo-2-methyl-phenylamino)-benzamide] | 920 nM | – |
| Cc1cc(I)ccc1Nc1cccc(F)c1C(=O)O [Example 26, 2-Fluoro-6-(4-iodo-2-methyl-phenylamino)-benzoic acid] | 2610 nM | inhibition at 30 µM (MAP kinase): 50% |
| Cc1cc(I)ccc1Nc1ccccc1-c1nnn[nH]1 [Example 208, (4-Iodo-2-methyl-phenyl)-[2-(1H-tetrazol-5-yl)-phenyl]amine] | 1220 nM | – |
| O=C(O)c1cccc(Cl)c1Nc1ccc(I)cc1Cl [Example 25, 3-Chloro-2-(2-chloro-4-iodo-phenylamino)-benzoic acid] | 2360 nM | – |
| Cc1cc(I)ccc1Nc1ccc([N+](=O)[O-])cc1C(=O)N1CCC(O)C1 (stereo not shown) [Example 95, (3-Hydroxy-pyrrolidin-1-yl)-[2-(4-iodo-2-methyl-phenylamino)-5-nitro-phenyl]-methanone] | 1000 nM | – |
| Cc1cc(I)ccc1Nc1ccc(Br)cc1C(=O)NCCO [Example 188, 5-Bromo-N-(2-hydroxy-ethyl)-2-(4-iodo-2-methyl-phenylamino)-benzamide] | 771 nM | – |
| Cc1cc(I)ccc1Nc1ccc(I)cc1C(=O)O [Example 21, 5-Iodo-2-(4-iodo-2-methyl-phenylamino)-benzoic acid] | 569 nM | – |
| Nc1c([N+](=O)[O-])cc(C(=O)O)c(Nc2ccc(I)cc2Cl)c1F [Example 211, 4-Amino-2-(2-chloro-4-iodo-phenylamino)-3-fluoro-5-nitro-benzoic acid] | > 100 nM | – |
| CCN(CC)C(=O)c1ccc(F)cc1Nc1ccc(I)cc1C [Example 43, N,N-Diethyl-4-fluoro-2-(4-iodo-2-methyl-phenylamino)-benzamide] | > 1000 nM | – |
| 5-Bromo-3,4-difluoro-2-(4-iodo-2-methyl-phenylamino)-N-(2-piperidin-1-yl-ethyl)-benzamide [Example 55] | 114 nM | – |
| Cc1cc(I)ccc1Nc1ccc(I)cc1C(=O)NCCO [Example 191, N-(2-Hydroxy-ethyl)-5-iodo-2-(4-iodo-2-methyl-phenylamino)-benzamide] | 1360 nM | – |
| N-(2,3-Dihydroxy-propyl)-4-fluoro-2-(4-iodo-2-methyl-phenylamino)-benzamide [Example 57] | 399 nM | – |

Further compounds by falling IC50 (MEK), results first:

| IC50 (MEK) | Compound | other results |
| --- | --- | --- |
| 374 nM | Cc1cc(I)ccc1Nc1ccc(Cl)cc1C(=O)NCCN1CCCC1 [Example 96, 5-Chloro-2-(4-iodo-2-methyl-phenylamino)-N-(2-pyrrolidin-1-yl-ethyl)-benzamide] | – |
| 237 nM | Cc1cc(I)ccc1Nc1cc(F)ccc1C(=O)Nc1nnn[nH]1 [Example 37, 4-Fluoro-2-(4-iodo-2-methyl-phenylamino)-N-(1H-tetrazol-5-yl)-benzamide] | – |
| 194 nM | Cc1cc(Br)ccc1Nc1c(C(=O)O)ccc(F)c1F [Example 15, 2-(4-Bromo-2-methyl-phenylamino)-3,4-difluoro-benzoic acid] | – |
| 178 nM | Cc1cc(Br)ccc1Nc1cc(F)ccc1C(=O)O [Example 13, 2-(4-Bromo-2-methyl-phenylamino)-4-fluoro-benzoic acid] | – |
| 135 nM | O=C(O)c1cc([N+](=O)[O-])ccc1Nc1ccc(I)cc1F [Example 12, 2-(2-Fluoro-4-iodo-phenylamino)-5-nitro-benzoic acid] | – |
| 97 nM | O=C(O)c1cc([N+](=O)[O-])ccc1Nc1ccc(I)cc1Cl [Example 9, 2-(2-Chloro-4-iodo-phenylamino)-5-nitro-benzoic acid] | – |
| 71 nM | Cc1cc(I)ccc1Nc1ccc(Cl)cc1C(=O)O [Example 6, 5-Chloro-2-(4-iodo-2-methyl-phenylamino)-benzoic acid] | – |
| 34 nM | O=C(O)c1cc([N+](=O)[O-])c(Nc2ccc(I)cc2Cl)c(F)c1Nc1ccc(I)cc1Cl [Example 212, 2,4-Bis-(2-chloro-4-iodo-phenylamino)-3-fluoro-5-nitro-benzoic acid] | – |
| 31 nM | O=C(O)c1ccc([N+](=O)[O-])cc1Nc1ccc(I)cc1Cl [Example 215, 2-(2-Chloro-4-iodo-phenylamino)-4-nitro-benzoic acid] | – |
| 28 nM | Cc1cc(I)ccc1Nc1cc(F)ccc1C(=O)NN [Example 224, 4-Fluoro-2-(4-iodo-2-methyl-phenylamino)-benzoic acid hydrazide] | – |
| 19 nM | Cc1cc(I)ccc1Nc1cc(F)ccc1C(=O)O [Example 1, 4-Fluoro-2-(4-iodo-2-methylphenylamino)benzoic acid] | – |
| 14 nM | Cc1cc(I)ccc1Nc1c(C(=O)O)cc(F)c(F)c1F [Example 2, 3,4,5-Trifluoro-2-(4-iodo-2-methyl-phenylamino)-benzoic acid] | IC50 (MAP kinase): 3000 nM |
| 11.1 nM | Cc1cc(I)ccc1Nc1c(C(=O)O)ccc(F)c1F [Example 3, 3,4-Difluoro-2-(4-iodo-2-methyl-phenylamino)-benzoic acid] | IC50 (MAP kinase): 10000 nM |
| 5 nM | Cc1cc(I)ccc1Nc1c(C(=O)O)cc(Br)c(F)c1F [Example 4, 5-Bromo-3,4-difluoro-2-(4-iodo-2-methyl-phenylamino)-benzoic acid] | IC50 (MAP kinase): 1000 nM |
